Results reported in ChEMBL document CHEMBL4715734, “Discovery of the Potent and Selective M1 PAM-Agonist N-[(3R,4S)-3-Hydroxytetrahydro-2H-pyran-4-yl]-5-methyl-4-[4-(1,3-thiazol-4-yl)benzyl]pyridine-2-carboxamide (PF-06767832): Evaluation of Efficacy and Cholinergic Side Effects” (J Med Chem, 2016).

Columns and labels:
[1] = Intrinsic clearance in human liver microsome; assay type: ADME; details: liver microsomes, read-out: CLH
[2] = Fraction unbound in C57BL/6 mouse plasma; assay type: ADME, cell-free
[3] = Ratio of fAUC in C57BL/6 mouse brain to plasma; assay type: ADME, cell-free; details: brain and plasma, read-out: Ratio AUC
[4] = Permeability of compound in MDCKII-LE cells; assay type: ADME, cell-based, Canis lupus familiaris; details: dog, MDCK; read-out: permeability
MDR1 (P-gp) = test: Efflux ratio of permeability across basolateral to apical side over apical to basolateral side in dog MDCK-MDR1 cells; assay type: ADME, cell-based, Canis lupus familiaris
[5] = Fraction unbound in rat brain; assay type: ADME, cell-free
[6] = Ratio of AUC in C57BL/6 mouse brain to plasma at 1 mg/kg, sc; assay type: ADME, organism-based; details: brain and plasma, read-out: Ratio AUC
[7] = target: T1, Muscarinic acetylcholine receptor M1 (Homo sapiens, UniProt P11229); test: Positive allosteric modulation of human muscarinic M1 receptor stably expressed in CHO cells assessed as increase in Ach-induced intracellular calcium level preincubated for 10 mins followed by addition of Ach at EC20 concentration by Fluo-8AM dye based FLIPR TETRA method; assay type: functional, cell-based
T1 sequence (P11229 whole entry): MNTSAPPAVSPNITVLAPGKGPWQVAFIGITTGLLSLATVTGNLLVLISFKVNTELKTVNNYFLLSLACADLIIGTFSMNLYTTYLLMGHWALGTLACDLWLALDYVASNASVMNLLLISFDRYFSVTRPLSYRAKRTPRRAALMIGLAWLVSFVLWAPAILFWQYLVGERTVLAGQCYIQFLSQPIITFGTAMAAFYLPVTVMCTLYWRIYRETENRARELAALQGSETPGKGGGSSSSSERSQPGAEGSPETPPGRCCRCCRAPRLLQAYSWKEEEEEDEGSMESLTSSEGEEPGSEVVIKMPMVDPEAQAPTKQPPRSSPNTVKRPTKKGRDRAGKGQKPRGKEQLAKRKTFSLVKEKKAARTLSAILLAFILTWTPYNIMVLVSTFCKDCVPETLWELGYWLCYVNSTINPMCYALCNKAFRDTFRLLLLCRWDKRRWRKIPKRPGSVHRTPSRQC

[8] = Ratio of AUC in mouse brain to plasma; assay type: ADME, cell-free; details: brain and plasma, read-out: Ratio AUC

| Compound | CLint scaled [1] [mL/min/kg] | Fu [2] [%] | Kp uu [3] | Papp [4] [×10⁻⁶ cm/s] | efflux ratio (MDR1 (P-gp)) | Fu [5] [%] | Kp [6] | EC50 [7] [nM] | Kp [8] |
| --- | --- | --- | --- | --- | --- | --- | --- | --- | --- |
| Cc1cnc(C(=O)N[C@H]2CCOC[C@@H]2O)cc1Cc1ccc(-n2cccn2)cc1 | < 8 | 7.4 | 0.23 | 21 | 1.4 | 9 | 0.2 | – | – |
| O=C(N[C@H]1CCOC[C@@H]1O)c1cc(Cc2ccc(-n3cccn3)cc2)ccn1 | < 8 | – | – | 24 | 1.8 | – | – | > 9000 | – |
| Cc1ncc(C(=O)N[C@H]2CCOC[C@@H]2O)cc1Cc1ccc(-n2cccn2)cc1 | < 8 | – | – | 8 | 6.3 | – | – | 392 | – |
| Cc1ccc(C(=O)N[C@H]2CCOC[C@@H]2O)cc1Cc1ccc(-n2cccn2)cc1 | < 8 | – | – | 16 | 2.2 | – | – | 208 | – |
| CO[C@@H]1CCN(c2ccc(Cc3cc(C(=O)N[C@H]4CCCC[C@@H]4O)c(=O)n(C)c3C)cc2)C1 | 22 | – | – | 23 | 2.2 | – | – | 1690 | – |
| Cc1cc(N)c(C(=O)N[C@H]2CCOC[C@@H]2O)cc1Cc1ccc(-n2cccn2)cc1 (racemic) | 23 | – | – | 19 | 1.9 | – | – | > 9000 | – |
| Cc1c(Cc2ccc(-c3cscn3)cc2)cc(C(=O)N[C@H]2CCCC[C@@H]2O)c(=O)n1C | 26 | – | – | 17 | 2.4 | – | – | 166 | – |
| Cc1cnc(C(=O)N[C@H]2CCCC[C@@H]2O)cc1Cc1ccc(-n2cccn2)cc1 (single isomer, unassigned) | 20 | – | – | 19 | 1.5 | – | – | – | – |
| Cc1cc(F)c(C(=O)N[C@H]2CCOC[C@@H]2O)cc1Cc1ccc(-n2cccn2)cc1 | < 10 | – | – | 20 | 1.5 | – | – | 115 | – |
| Cc1cnc(C(=O)N[C@H]2CCOC[C@@H]2O)cc1Cc1ccc(-c2cocn2)cc1 | < 8 | – | – | 32 | 1.2 | – | – | – | – |

Next, values leading:

| CLint scaled [1] [mL/min/kg] | Fu [2] [%] | Kp uu [3] | Papp [4] [×10⁻⁶ cm/s] | efflux ratio (MDR1 (P-gp)) | Fu [5] [%] | Kp [6] | EC50 [7] [nM] | Kp [8] | Compound |
| --- | --- | --- | --- | --- | --- | --- | --- | --- | --- |
| 13 | – | – | 13 | 3.1 | – | – | 102 | – | Cc1c(Cc2ccc(-c3ccn(C)n3)cc2)cc(C(=O)N[C@H]2CCCC[C@@H]2O)c(=O)n1C |
| < 8 | – | – | 20 | > 5.3 | – | – | 20 | – | Cc1c(Cc2ccc(-n3cccn3)cc2)cc(C(=O)N[C@H]2CCOC[C@@H]2O)c(=O)n1C |
| 17 | – | – | 26 | 2.4 | – | – | 38 | 0.03 | Cc1c(Cc2ccc(-c3cocn3)cc2)cc(C(=O)N[C@H]2CCCC[C@@H]2O)c(=O)n1C |
| 20 | – | – | 23 | 2.7 | – | – | 29 | 0.05 | Cc1c(Cc2ccc(-n3cccn3)cc2)cc(C(=O)N[C@H]2CCCC[C@@H]2O)c(=O)n1C |
